The record followed here is patent US7754715B2, “Sustained-release oral molsidomine composition for treating atherosclerosis” (Therabel Pharmaceuticals Limited, priority 2004, dated 2010).

“Also recorded” adds a separate entry of the source.

Test [1] has as its system ICAM-1s (circulating soluble ICAM-1). Briefly: Circulating soluble ICAM-1 in serum (ELISA) in long-term clinical study of patients with stable angina pectoris. The test is classed as in vivo, human. The conditions noted are these: for concentration of ICAM-1s, Mean ± SD: 4 weeks double-blind. The procedure: This study comprised 3 consecutive phases: • a 7-day pre-study under placebo; • a 4-week double-blind and double-placebo randomized crossover study during which the patients received alternately (2×2 weeks) a molsidomine-based formulation containing an 8 mg dose, currently marketed in Belgium under the name Corvatard® (2 daily dosage units), and a molsidomine-based formulation containing a 16 mg dose, effective over 24 hours, currently marketed in Belgium under the name Coruno® (1 daily dosage unit); and • a 12-month study during which the 172 patients received a molsidomine-based formulation containing a 16 mg dose, currently marketed in Belgium under the name Coruno®. Also, and of greatest importance, the concentrations of ICAM-1s were measured after each of the three phases of the study, the first measurement constituting the baseline. More precisely, the concentrations of ICAM-1s were measured as follows: Blood samples (5 ml) were taken in non-heparinized tubes. These samples were kept at room temperature and then centrifuged. The serum was separated off and immediately frozen at −20° C. until required for analysis. The circulating ICAM-1 was measured using a commercially available ELISA test (R&D Systems Europe).
In general terms: An ELISA detects its analyte on a solid surface through an enzyme-linked reagent.

A short description of test [2]: Weekly frequency of angina attacks and of consumption of s.l. ISDN 5 mg tablets in clinical study. The test is classed as in vivo, human. As to the method: This study comprised 3 consecutive phases: • a 7-day pre-study under placebo; • a 4-week double-blind and double-placebo randomized crossover study during which the patients received alternately (2×2 weeks) a molsidomine-based formulation containing an 8 mg dose, currently marketed in Belgium under the name Corvatard® (2 daily dosage units), and a molsidomine-based formulation containing a 16 mg dose, effective over 24 hours, currently marketed in Belgium under the name Coruno® (1 daily dosage unit); and • a 12-month study during which the 172 patients received a molsidomine-based formulation containing a 16 mg dose, currently marketed in Belgium under the name Coruno®. It is pointed out that, during the second phase of the study, the concomitant use of other antianginal drugs was prohibited with the exception of sublingual (s.l.) isosorbide dinitrate (ISDN) 5 mg in tablet form, which could be consumed ad libitum to alleviate the symptoms of anginal pain. In the course of this study, the weekly frequency of angina attacks and the weekly frequency of consumption of s.l. ISDN 5 mg tablets were noted.

The mark [3] stands for this setting: 4-week treatment, versus baseline.

For `CCOC(=O)[N-]c1cn(N2CCOCC2)n[o+]1` [molsidomine], the “effect on the levels of circulating ICAM-1s” value in test [1] (4-week treatment (16 mg o.a.d. or 8 mg b.i.d.)) is recorded as “no effect; also recorded: did not cause any effect”. Further, the “concentration of ICAM-1s, Mean ± SD” value in test [1] (alcohol <1 glass/day, N=161) was found to be 276 ± 89 ng/mL; in test [1] (alcohol ≧1 glass/day, N=11) it was 242 ± 38 ng/mL; in test [1] (all patients, N=172) it was 274 ± 87 ng/mL; in test [1] (both concomitant drugs, N=20), 247 ± 45 ng/mL; in test [1] (concomitant beta-blockers, N=30), 281 ± 58 ng/mL; in test [1] (concomitant statins, N=38) it was 277 ± 70 ng/mL. The “concentration of ICAM-1s, Mean ± SD” value in test [1] (former smokers, N=59) stood at 277 ± 67 ng/mL; in test [1] (men, N=117), 264 ± 58 ng/mL; in test [1] (no concomitant medication, N=78), 276 ± 112 ng/mL; in test [1] (non-smokers, N=81), 262 ± 74 ng/mL; in test [1] (smokers, N=32), 297 ± 138 ng/mL; in test [1] (women, N=55), 293 ± 128 ng/mL. For the same molecule, the “consumption of sublingual nitro compounds” value in test [2] (setting [3]) is on record as “decreased”. For the same molecule, the “number of angina attacks” value in test [2] (setting [3]) is given as “decreased”. Further, the antianginal effects entry in test [2] (after one year) was “maintained or even improved”.
